The values below are quoted from earlier work in patent publication US6583123B2, “Aminosugar, glycosaminoglycan, and S-adenosylmethionine composition for the treatment and repair of connective tissue” (Nutramax Laboratories, Inc., priority 1996, dated 2003).

One data set deals with fibroblasts. Conditions: in vitro.
In a further data set the test system is osteoarthritis. Conditions: humans with osteoarthritis.
A further data set concerns wound healing. As to conditions: topical application, in vivo.
For data set [1] the following is noted: some forms of exogenous SAM, given orally.
The conditions of data set [2]: oral, humans, versus placebo.
The conditions of data set [3]: SAM per se (not stable salts).
Assay in data set [4]: not given
This is another data set of the same source.

On to `N[C@H]1C(O)O[C@H](CO)[C@@H](O)[C@@H]1O` (stereo partly shown) [Glucosamine], for which the “synthesis of collagen and glycosaminoglycans” value in the data set with fibroblasts is “increase the synthesis of collagen and glycosaminoglycans”. Further, the “absorption after oral administration” value (humans and animals) is given as “rapidly absorbed”. Further, the “tissue localization of ingested glucosamine” value (oral) was “localizes to cartilage and joint tissues”. Also, the “symptoms and cartilage integrity” value with osteoarthritis was “reproducible improvement in symptoms and cartilage integrity”. Also, the wound healing entry in the data set with wound healing is reported as “enhanced wound healing”.
For `C[S+](CC[C@H](N)C(=O)[O-])C[C@H]1O[C@@H](n2cnc3c(N)ncnc32)[C@H](O)[C@@H]1O` (stereo partly shown) [SAM, S-Adenosylmethionine], in data set [1], the “stability in digestive juices” value is recorded as “stable in digestive juices”. Further, in data set [2], the tolerability entry is on record as “tolerated to the same extent as placebo”. For the same compound, in [3], the stability entry was “unstable”.
Take `Nc1ncnc2c1ncn2[C@@H]1O[C@H](CO)[C@@H](O)[C@H]1O` [adenosine]: the anti-inflammatory effect result with inflammation was “more modest anti-inflammatory effect”.
Consider `[Mn+2]` [manganese], for which, in data set [4], the “dietary manganese absorbed by the body tissue” value was “Approximately 40%”.
